Assay results from ChEMBL document CHEMBL2073944 (Eur J Pharmacol, 2003).
Structures can show the parent of a compound that is named as a salt.

Experiments:
Format in all cases: functional, cell-based
[1] = biological target: T1, Solute carrier family 22 member 11 (Homo sapiens, UniProt Q9NSA0); assay: TP_TRANSPORTER: uptake in OAT4-S2 cells; settings: mouse
T1 sequence (Q9NSA0 whole entry): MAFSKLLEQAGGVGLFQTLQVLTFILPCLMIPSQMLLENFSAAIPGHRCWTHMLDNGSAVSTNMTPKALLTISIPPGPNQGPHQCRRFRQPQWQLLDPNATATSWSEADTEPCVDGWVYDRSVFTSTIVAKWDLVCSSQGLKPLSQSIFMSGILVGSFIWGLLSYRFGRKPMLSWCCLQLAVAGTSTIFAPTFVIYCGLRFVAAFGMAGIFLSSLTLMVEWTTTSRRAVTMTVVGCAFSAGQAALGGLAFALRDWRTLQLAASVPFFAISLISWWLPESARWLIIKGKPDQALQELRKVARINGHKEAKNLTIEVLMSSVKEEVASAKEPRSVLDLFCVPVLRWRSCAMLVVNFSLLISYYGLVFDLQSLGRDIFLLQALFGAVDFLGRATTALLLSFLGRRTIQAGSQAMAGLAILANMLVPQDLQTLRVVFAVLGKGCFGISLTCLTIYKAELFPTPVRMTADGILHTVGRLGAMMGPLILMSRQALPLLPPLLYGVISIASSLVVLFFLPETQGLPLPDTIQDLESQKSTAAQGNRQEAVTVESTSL

[2] = biological target: T1, Solute carrier family 22 member 11; assay: TP_TRANSPORTER: uptake&inhibition of estrone sulfate in OAT4-S2 cells
[3] = biological target: T1, Solute carrier family 22 member 11; assay: TP_TRANSPORTER: inhibition of E1S uptake (E1S: 5 uM, indoxyl sulfate:500 uM) in S2 cells expressing human-OAT4
[4] = biological target: T2, Organic anion transporter 3 (Homo sapiens, UniProt Q8TCC7); assay: TP_TRANSPORTER: uptake in OAT3-S2 cells; settings: mouse
T2 sequence (Q8TCC7 whole entry): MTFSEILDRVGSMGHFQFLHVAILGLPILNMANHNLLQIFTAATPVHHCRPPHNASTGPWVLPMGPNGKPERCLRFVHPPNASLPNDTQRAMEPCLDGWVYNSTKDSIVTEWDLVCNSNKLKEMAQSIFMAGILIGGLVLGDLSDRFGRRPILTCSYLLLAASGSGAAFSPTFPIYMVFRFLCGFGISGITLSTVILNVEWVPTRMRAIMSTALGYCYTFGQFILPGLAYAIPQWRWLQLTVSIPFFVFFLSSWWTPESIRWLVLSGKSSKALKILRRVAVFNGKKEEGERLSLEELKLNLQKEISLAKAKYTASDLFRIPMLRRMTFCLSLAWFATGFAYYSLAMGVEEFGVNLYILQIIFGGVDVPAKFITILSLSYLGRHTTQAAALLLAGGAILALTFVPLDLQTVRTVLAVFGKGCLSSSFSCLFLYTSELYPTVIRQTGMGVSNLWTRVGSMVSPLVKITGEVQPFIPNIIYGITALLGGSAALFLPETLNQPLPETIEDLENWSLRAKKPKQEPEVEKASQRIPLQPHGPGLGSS

O=S(=O)(O)Oc1c[nH]c2ccccc12 [INDOXYL SULFATE]
Activity [1]: substrate [] | Ki [2]: 181 µM | Ki [3]: 181 µM | Activity [4]: substrate []
